# Assay results taken from paper PMC11067372, “Evaluation of the antiplasmodial efficacy of synthetic 2,5-diphenyloxazole analogs of compounds naturally derived from Oxytropis lanata” (International Journal for Parasitology: Drugs and Drug …, 2024).
# Like-named read-outs stand apart in the source and are kept apart here.
# How the values were obtained:
# [1] = test system: P. falciparum 3D7; test: Stage-specific assay on ring and schizont stages (SYBR Green I, 24 h); type: cell-based, Plasmodium falciparum; conditions: eight concentrations from 100-fold IC50
# Protocol: (§1) To ensure uniformity, the parasites underwent a rigorous synchronization process using a two-step sorbitol treatment procedure. This synchronized parasite population was harnessed within a 2-h window for the ring stage, 8–10 h for the trophozoite stage, and 24–26 h for the schizont stage. Subsequent to sorbitol treatment, early trophozoites could be obtained within 6–8 h after the initial sorbitol treatment (within 20 h of development), while early schizonts could be obtained after an additional 16 h of incubation (within 36 h of development). Beyond 36 h, the schizonts mature, causing the rupture of red blood cells (RBCs) and the consequent release of merozoites, which promptly infect new RBCs.
# Wells containing only the test compounds and erythrocytes were included to correct for background activity. The 96-well plates were incubated for 24 h at 37 °C in an atmosphere of 5% CO2 and 5% O2. The growth of P. falciparum 3D7 was detected using a SYBR Green I-based fluorescence assay.
# [2] = test system: P. falciparum 3D7; test: IC50 speed assay (24, 48, 72 h); type: cell-based, Plasmodium falciparum; conditions: for Speed of action (IC50 speed assay): IC50 at 24, 48, 72 h compared; for IC50: Plasmodium falciparum
# Protocol: (§2) The D-sorbitol method (CAS: 50-70-4, Wako, Osaka, Japan) was employed to synchronize parasites, resulting in the attainment of ≥90% ring-stage parasites. These synchronized parasites were then utilized for the experiments within a 2-h window. The assay was performed as follows. First, 50 μL of synchronized parasites with 0.5% parasitemia and 2% hematocrit were added to individual wells of a 96-well plate. Then, 50 μL of the test compounds was introduced to each well. […] Wells containing only test compounds and erythrocytes were included for background correction. […] After the designated incubation time, 100 μL of lysis buffer containing 0.02% (v/v) SYBR Green I was added to each well, the contents of the well were mixed by pipetting, and the plate was incubated in the dark at room temperature for 2 h. […] This assay was repeated four times at each concentration, and the resulting inhibitory values represent the average from three independent trials.
# [3] = In vitro toxicity to human cells (cell viability assay); type: cell-based; conditions: human foreskin fibroblasts (HFFs), average ± SD, three independent experiments
# Protocol: HFF cells are selected for cytotoxicity testing in this study, providing a physiologically relevant model for the evaluation of drug interactions with human cells. […] This designation makes them a suitable model for the investigation of cellular processes and their sensitivity to toxic substances, which is crucial for the early identification of potential adverse effects of drugs during the development process.
# (§3) The IC50 or CC50 values were determined from three independent experiments by plotting the logarithmic concentration of the compound against the percent parasite inhibition or cell growth inhibition, respectively. Nonlinear regression analysis was conducted using GraphPad Prism 10 (GraphPad Software, Inc., La Jolla, CA, USA). Comparisons between groups were evaluated using either one-way or two-way ANOVA followed by Tukey's or Fisher's multiple comparisons tests. A p-value of <0.05 was considered to indicate statistical significance and is denoted by an asterisk or a symbol. The meaning of each symbol is specified in the corresponding figure legend alongside the name of the employed test.
# [4] = test system: P. falciparum K1; test: In vitro inhibition of P. falciparum K1 (SYBR Green I-based fluorescence assay); type: cell-based; conditions: Plasmodium falciparum, read-out: IC50 P. falciparum K1
# Protocol: (§4) The cultures were maintained in an incubator under specific conditions: 37 °C under 5% CO2 and 5% O2.
# as §2
# as §3, with “A p-value of <0.05 was considered to indicate statistical significance and is denoted by an asterisk or a symbol.” left out
# [5] = test system: P. falciparum 3D7; test: Stage-specific microscopy examination (ring, trophozoite, schizont); type: cell-based, Plasmodium falciparum; conditions: ring, trophozoite, schizont stages, artemisinin and chloroquine at all concentrations, Compounds 31 and 32 at 100 times IC50
# Protocol: as §1
# The negative control group consisted of cultures treated solely with complete medium and was designated the no treatment (NT) group. This analysis was repeated three times at each concentration. Following a 24-h incubation period, the culture in a 96-well plate was centrifuged at 1300 g for 5 min to settle down the iRBC; then, the supernatants were removed, and the iRBCs were washed with fresh media at the same volume as the initial culture. The centrifugation and washing were repeated 3 times, allowing the compound to be diluted by approximately 1000 times. Subsequently, thin blood smears from each treatment group were prepared using 1 μL of settled iRBCs. The proportion of parasites affected by the drug, including those with both abnormal and retained morphologies, was calculated by examining 100 parasites and counting the number displaying irregular development. Subsequently, the number of abnormal parasites was divided by the total count and then multiplied by 100 to obtain a percentage. The parameters used to define normal and abnormal morphologies can be found in Table S3 and Fig. S1.
# [6] = test system: P. falciparum 3D7; test: In vitro inhibition of P. falciparum 3D7 (SYBR Green I-based fluorescence assay); type: cell-based, Plasmodium falciparum; conditions: Plasmodium falciparum, 3D7, 72 h, read-out: IC50 P. falciparum 3D7
# Protocol: as §4, §2
# as §3, with “A p-value of <0.05 was considered to indicate statistical significance and is denoted by an asterisk or a symbol.” left out
# [7] = test system: P. yoelii 17XNL; type: in vivo; conditions: P. yoelii 17XNL-infected mice; 20 mg/kg/day
# Protocol: Male C57BL/6 mice, aged eight weeks, were obtained from Japan CLEA (Tokyo, Japan) and housed with six per cage in each group. These mice were kept under conditions of 24 °C, 50% relative humidity, and a light-dark cycle of 8 a.m. to 8 p.m. Access to drinking water and food (CLEA Rodent Diet CE-2; Japan CLEA, Tokyo, Japan) was unrestricted. Prior to experimentation, P. yoelii 17XNL was recovered from cryopreserved erythrocyte stocks via passage in mice. […]. Parasitemia levels were evaluated […] by collecting 2 μL of blood from the mouse tail for thin blood smear preparation. Treatment was initiated upon reaching a parasitemia level of 1%. […]. Parasitemia in infected mice was observed daily by preparing Giemsa-stained thin blood smears (up to 30 dpi). Hematocrit levels were measured every other day using a Celltac-α MEK-6550 (Nihon Kohden, Tokyo, Japan), with 10 μL of blood collected from the mouse tail for each assessment. The animals were handled and treated in accordance with the Guide for the Care and Use of Laboratory Animals by the Ministry of Education, Culture, Sports, Science, and Technology, Japan. Ethical permission for the animal experiment protocols was secured under permit numbers 21–35 and 23–90 from the ethical committee of Obihiro University of Agriculture and Veterinary Medicine.
# The median point within this range was selected to maintain a balance between efficacy and safety. Furthermore, a modified Peter's suppression test was utilized to assess the efficacy of antimalarial drugs ([Ager, 1984]; [Peters et al., 1975]). The treatment and observation period were initially set for 4 days. […] […]. […] These findings highlight the effect of the 20 mg/kg/day dosage of Compounds 31 and 32 in reducing parasitemia without causing side effects.
Structure (SMILES),Stage specificity (ring and schizont stages) [1],Speed of action (IC50 speed assay) ([2]; P. falciparum 3D7),"IC50 ([2]; P. falciparum 3D7, 24 h incubation, read-out: IC50 24 h)","IC50 ([2]; P. falciparum 3D7, 48 h incubation, read-out: IC50 48 h)",CC50 [3],"IC50 ([4]; multidrug-resistant strain K1, 72 h incubation, average ± SD, three independent experiments)",Parasite morphology after 24 h treatment [5],"IC50 ([2]; 3D7, 24 h, read-out: IC50 24 h)","IC50 ([2]; 3D7, 48 h, read-out: IC50 48 h)","IC50 ([2]; 3D7, 72 h, read-out: IC50 72 h)",IC50 [6],"IC50 ([4]; K1, 72 h)",Treatment duration required to decrease the parasitemia levels from the peak of infection [7]
"C[C@@H]1CC[C@H]2[C@@H](C)C(=O)O[C@@H]3O[C@@]4(C)CC[C@@H]1[C@]32OO4 [Artemisinin, artemisinin, reference compound]",potency against ring and schizont stages,fast-acting,37 ± 5 nM,23 ± 2 nM,153000 ± 30800 nM,19 ± 2 nM,death and shrinkage of the parasite at all stages,–,–,–,–,–,–
"CCN(CC)CCCC(C)Nc1ccnc2cc(Cl)ccc12 (stereo not shown) [Chloroquine (diphosphate), chloroquine diphosphate, reference compound]",potency against ring and schizont stages,fast-acting,–,–,–,–,death and shrinkage of the parasite at all stages,46 ± 3 nM,22 ± 4 nM,26 ± 4 nM,26 ± 3 nM,784 ± 73 nM,7 days
